# Results taken from patent US5807861A, “Amine substituted xanthinyl compounds” (Cell Therapeutics, Inc., priority 1995, dated 1998).
# Columns and labels:
# [1] = system: mouse femoral marrow CFU-GM; conditions: in vivo
# Excerpt: Mouse spleen conditioned-medium, at a concentration of 2%, was used in this assay. The medium and semi-solid culture mix were procured from Stem Cell Technologies in Vancouver, BC.
# [2] = system: thymocytes; assay: thymocyte proliferation co-stimulated with Con A and IL-2; type: cell-based, mouse (Balb/C); conditions: co-stimulated with Con A and IL-2, various concentrations
# Experimental: 3506, 3556, 3563, 3576, 3581, 3582 and 3584 on thymocyte proliferation and activation, co-stimulated with Concanavalin A (Con A) and interleukin-2 (IL-2), at various concentrations of the compounds (IC50). Con A and IL-2 together stimulate T cell proliferation and differentiation.
# Thymuses, obtained from normal, female Balb/C mice, were dissociated and plated into 96-well plates at a density of 2×10^5 cells/well. Con A ([…]) and IL-2 (15 U/ml) were added to the wells. The cells were incubated for 4 days at 37° C. On day 4, the cells were pulsed with tritiated thymidine and incubated for an additional 4 hours. Incorporated tritiated thymidine of harvested cells was determined in a liquid scintillation counter. Results plotted as dose concentration versus proliferation for inventive compounds nos. 3506, 3556, 3563, 3576, 3581, 3582 and 3584 are shown in FIGS. 6 (3506), 7 (3556), 8 (3563), 9 (3576), 10 (3581 and 3582) and 11 (3584). Respective concentrations of inventive compound (shown in the figures) were added two hours prior to Con A and IL-2 activation. Background counts were less than 200 cpm.
# [3] = system: mouse bone marrow cells (CFU-GM); assay: CFU-GM colony assay, effect on normal mouse bone marrow cells; type: cell-based; conditions: for effect on normal cells compared to known chemotherapeutic compounds: in vitro, vs vinblastine, 5-fluorouracil, doxorubicin or cisplatinum; for cytotoxicity to normal mouse marrow cells: 8 h incubation, 7 days colony growth
# Excerpt: This example illustrates a method for examining an effect of the inventive compounds, showing potential as cancer therapies, on normal cells. This assay has been used clinically to evaluate recovery of patients' marrow following chemotherapy or radiation. In this specific example, inventive compounds nos.
# Mouse bone marrow cells are useful in this assay because they produce colonies, which can later be counted, in culture. The colonies are called colony forming unit-granulocyte macrophage (CFU-GM) and depend on a source of colony stimulating factor for growth.
# Cells were cultured with inventive compounds nos. 3563, 3576, 3581, 3584 and 4500, to comparatively evaluate an effect on normal cells of inventive compounds identified as potential cancer therapies. Procedurally, cells were incubated for 8 hours with various concentrations of these compounds. A negative control without any compound was simultaneously prepared. After 8 hours, the incubated cells were washed thoroughly and a consistent number were subsequently plated to obtain CFU-GM. Colonies were permitted to grow for 7 days at 37° C., in 5% CO2. After 7 days of growth, colony growths were counted microscopically. Data obtained in this assay for inventive compounds nos. 3563, 3576, 3581, 3584 and 4500 are plotted in FIGS. 12, 13, 14, 15 and 16, respectively. The data in the figures are shown to compare the colonies counted for cells incubated with varying concentrations of the compounds tested against the negative control, without compound. At concentrations ranging from 5 to 30 μM, more colonies existed for cells incubated with the inventive potential cancer compound than with known, chemotherapeutic agents. Compound no.
# [4] = system: 293-EBNA cells; assay: 293-EBNA cell viability (alamarBlue); type: cell-based
# Experimental: The effect of respective inventive compounds on the viability of 293-EBNA cells was measured by a colorimetric assay that uses the alamarBlue® dye (purchased from Alamar Biosciences, Inc.) to report cell proliferation, viability and cytotoxicity. This dye is an oxidation-reduction (Redox) indicator that changes color in response to chemical reduction of growth medium resulting from cell growth. The general procedure involves adding alamar-Blue® in an amount equal to 10% of the culture volume, returning the culture to incubator for four hours, and measuring the absorbance at 570 nm after subtraction of background absorbance at 600 nm.
# [5] = system: Balb/3T3 cells; assay: Balb/3T3 viability (cytotoxicity) assay with BCECF; type: cell-based; conditions: BCECF fluorescence; concentrations shown in FIGS. 1, 2 and 4; control value of 100%
# Experimental: In conjunction with the Balb/3T3 proliferation assay, a related viability assay was conducted to assess the cytotoxicity of compounds which inhibit proliferation in this system. The assay protocol was identical to that performed above except that tritiated thymidine was not added after the 24 hour incubation with PDGF. In this cytotoxicity assay, after incubating the cells, a 10 μM solution of BCECF was added and the cells were incubated for 30 minutes at 37° C. Following this incubation, BCECF was replaced with PBS and the plate read for fluorescence in a Millipore cytofluorometer. Data obtained was plotted as a percent of control versus concentration of inventive compound tested. FIGS. 3 and 5 represent the results of this viability assay, for compounds nos. 3556 and 4500, respectively.
# [6] = system: human stromal cells; assay: Comparative: PDGF-BB-induced proliferation in human stromal cells; type: cell-based; conditions: 50 ng/ml PDGF-BB; drugs added one hour prior (FIG. 23)
# Experimental: Human stromal cells were starved in serum-free media for 24 hours and then stimulated with 50 ng/ml PDGF-BB. The drugs were added at various concentrations one hour prior to PDGF stimulation. Tritiated thymidine was added at the time of PDGF stimulation and pulsed for 24 hours. Cells were harvested and cell proliferation measured (FIG. 23). Background counts (i.e., starved cells) were about 10% of control levels.
# [7] = system: polymorphonuclear leukocytes; conditions: U.S. Pat. No. 4,636,507; cited from earlier work
# [8] = system: JR-CSF strain of HIV-1; assay: JR-CSF HIV-1 infection of human peripheral blood lymphocytes (p24 antigen ELISA); type: cell-based, HIV-1 (in human PBL); conditions: 10 and 20 μM
# Experimental: In a protocol for infecting a PBL cell suspension, JR-CSF HIV-1 was clarified at low-speed centrifugation (2,000-3,000 rpm) or filtration and stored in aliquots at -70° C. To maintain consistent titers, HIV-1 aliquots were not subjected to repeated freezing and thawing and any remainder was discarded. Virus aliquots were thawed at room temperature or under cold running water for more rapid thawing and maintained in ice after thawing. Just prior to infection of PBL cells, the supernatant or dilution were warmed to room temperature.
# Human PBL cells taken from a suitable donor were centrifuged down at 1000 rpm for 5-10 minutes at room temperature. While cells were spinning, the virus inoculum was prepared in medium by adding 10 μg/ml Polybrene®. The centrifuged cells were resuspended in virus inoculum, using 1 ml of virus inoculum per 10^7 cells. A more efficient HIV-1 infection is obtained with smaller amounts of inoculum. The cells were incubated at 37° C. in the presence of virus inoculum for 2 hours, shaking the suspension every half hour. After 2 hours, the suspension was spun down, the virus inoculum removed and the cells were washed with 10 ml of fresh media.
# The infected cells, inoculated with virus at a concentration of 10 ng virus/10^6 PBL, were washed and resuspended in growth medium ([…] RPMI/20 % FBS/10 units/ml IL-2). […]
# [9] = system: human stromal cells; assay: PDGF-induced proliferation in human stromal cells; type: cell-based; conditions: 50 ng/ml PDGF; compound added one hour prior; various concentrations (FIG. 1)
# Experimental: 3506 on PDGF-induced proliferation in human stromal cells. Procedurally, human stromal cells were starved in serum-free media for 24 hours and then stimulated with 50 ng/ml PDGF. Compound no. 3506 was added at various concentrations one hour prior to PDGF stimulation and pulsed for 24 hours. Cells were harvested and cell proliferation measured having background counts (i.e., starved cells) at about 10% of control levels.
# [10] = system: certain cytokines; conditions: U.S. Pat. Nos. 4,965,271 and 5,096,906; cited from earlier work
# [11] = system: PAPH; conditions: specific activation pathway that does not involve PI; cited from earlier work
# [12] = system: tumor necrosis factor (TNF); conditions: PTX recipients; cited from earlier work
compound,measurement,setting,value
O=c1[nH]cc(F)c(=O)[nH]1 [5-fluorouracil],CFU-GM detectable in mouse femoral marrow,[1],no CFU-GM were detectable
CCCCCCCCCCCCCCCCNCCCCCCCCCCCn1c(=O)c2c(ncn2C)n(C)c1=O [compound 3584],effect on thymocyte proliferation and activation,[2],inhibitive effect
same,effect on normal cells compared to known chemotherapeutic compounds,[3],less deleterious to normal cells
CCCCCCCCCCNCCCCCCCCCCCn1c(=O)c2c(ncn2C)n(C)c1=O [compound 3581],effect on thymocyte proliferation and activation,[2],inhibitive effect
same,effect on normal cells compared to known chemotherapeutic compounds,[3],less deleterious to normal cells
CCCCCCN(C)CCCCCCCCCCCn1c(=O)c2c(ncn2C)n(C)c1=O [compound 4500],cytotoxicity to normal mouse marrow cells,[3],virtually no toxicity at elevated concentrations for the normal mouse marrow cells
same,concentration at which there is still little cytotoxicity,[4],> 32 µM
same,cytotoxicity at the concentrations that inhibit proliferation,[5],not cytotoxic to any cells
"CC(=O)CCCCCCn1c(=O)c2c(ncn2C)n(C)c1=O [A, 1-(7-oxooctyl)-3,7-dimethylxanthine]",concentrations at which activity on PDGF-induced proliferation is apparent,[6],millimolar concentrations
CCCCCCN(CCCCCC)CCCCCCCCCCCn1c(=O)c2c(ncn2C)n(C)c1=O [compound 3590],concentration at which there is still little cytotoxicity,[4],> 32 µM
"CC(O)CCCCn1c(=O)c2c(ncn2C)n(C)c1=O (centres unmarked) [M1, 1-(5-hydroxyhexyl)-3,7-dimethylxanthine]",chemotaxis in polymorphonuclear leukocytes responding to chemotaxis stimulation,[7],enhance chemotaxis
CCCCCCCCCCCCNCCCCCCCCCCCn1c(=O)c2c(ncn2C)n(C)c1=O [Compound no. 3563],effect on thymocyte proliferation and activation,[2],inhibitive effect
same,cytotoxicity to normal mouse marrow cells,[3],most cytotoxic to proliferative potential of the mouse marrow cells
same,effect on normal cells compared to known chemotherapeutic compounds,[3],less deleterious to normal cells
"CC(CCCCn1c(=O)c2c(ncn2C)n(C)c1=O)N(C)C (centres unmarked) [B, 1-(5-dimethylaminohexyl)-3,7-dimethylxanthine]",concentrations at which activity on PDGF-induced proliferation is apparent,[6],millimolar concentrations
"CCCCCCCCNCCCCCCCCCCCn1c(=O)c2c(ncn2C)n(C)c1=O [compound 3556, 1-(11-octylaminoundecyl)-3,7-dimethylxanthine]",effect on thymocyte proliferation and activation,[2],inhibitive effect
same,concentration at which cytotoxicity becomes significant,[4],> 10 µM
same,cytotoxicity at the concentrations that inhibit proliferation,[5],not cytotoxic to any cells
same,effect on HIV-1 viral infection,[8],virtually eliminated viral infection
CCCCCCCCCCCNCCCCCCn1c(=O)c2c(ncn2C)n(C)c1=O [Compound no. 3506],effect on thymocyte proliferation and activation,[2],inhibitive effect
same,inhibition of PDGF-induced proliferation,[9],inhibition of PDGF-induced proliferation
COc1cc(CNCCCCCCCCCCCn2c(=O)c3c(ncn3C)n(C)c2=O)cc(OC)c1OC [compound 3593],concentration at which there is still little cytotoxicity,[4],> 32 µM
CCCCCCCCCCCCCCNCCCCCCCCCCCn1c(=O)c2c(ncn2C)n(C)c1=O [compound 3582],effect on thymocyte proliferation and activation,[2],inhibitive effect
CCCCCCCCCCCCN(C)CCCCCCCCCCCn1c(=O)c2c(ncn2C)n(C)c1=O [compound 3576],effect on thymocyte proliferation and activation,[2],inhibitive effect
same,effect on normal cells compared to known chemotherapeutic compounds,[3],less deleterious to normal cells
"CC(=O)CCCCn1c(=O)c2c(ncn2C)n(C)c1=O [PTX, 1-(5-oxohexyl)-3,7-dimethylxanthine]",effect on activity of certain cytokines to affect chemotaxis,[10],inhibit activity of certain cytokines
same,chemotaxis in polymorphonuclear leukocytes responding to chemotaxis stimulation,[7],enhance chemotaxis
same,effect on PAPH,[11],blocks PAPH
same,TNF levels in normal volunteers,[12],TNF levels were higher
